In patent US20220081676A1, “MICROFLUIDIC DEVICES FOR TATTOO PIGMENT SAFETY” (priority 2019, published 2022):
Where two headings read alike, the source gives them in different places.

Columns and labels:
[1] = test system: Static Skin model (Hybrid Transwells); experiment: Skin irritation: release of associated cytokines after topical Triton X-100, Hybrid Transwells; format: cell-based, human; conditions: topical exposure
Protocol: D11 ALI. N=3 per condition Hybrid Transwells.
Method 1: ET50 values determined by MTT or Presto Blue assay will define the class of irritancy based on in vivo classification (see table below). Topical exposures will include 3 exposure times of 2 h, 5 h and 18 h to 100 ul or 100 mg of a test material. Positive control include 5% SDS and 1% Triton X-100. Method 2: a material is considered an irritant is viability is <50% after 1 h topical exposure to 30 ul or 25 mg/of test material (OECD TG 439) Method 3: a material is considered an irritant if there is an increase in the following cytokines compared to control by ELISA is indicative of skin irritant—IL-1alpha, IL-8, prostaglandin PGE2. MatTek Irritancy protocol

[2] = test system: EpiDerm200 from MatTek; conditions: cited from earlier work
[3] = test system: EpiDerm200 from MatTek; experiment: ET50 following topical exposure to Triton X-100, EpiDerm200 from MatTek; format: cell-based; conditions: skin equivalent model on the market
Protocol: (§1) In one embodiment, tissue robustness was evelauated determining the ET50 value following topical exposure to a test irritant, 1% TritonX-100. Irritation potential is calculated in terms of the “ET50” value: the time taken, in minutes, for a test compound to reduce the viability of the skin model to 50% compared with negative controls. […] Thus, at least one commercially obtained and tested skin equivalent model became permeable faster than one embodiment of a static skin model described herein.
(§2) Immunostaining (IF):Biomarkers characteristic of the stratified epidermal layers should include: • Basement membrane markers: collagen IV, Laminin 5 • Stratum basal: Keratin 14 • Stratum spinosum: Keratin 10 • Stratum granulosum: Filaggrin • Stratum corneum: Involucrin, Loricrin Quality control of tissue reproducibility from sample to sample and lot to lot can also be established by comparison of ET50 values to a baseline value. Example provided from MatTek for their baseline ET50 value on EpiDerm200—average 6.82 h. Exposure to 1.0% Triton X-100 topically over 12 h.

[4] = test system: Static Skin model; format: cell-based, human
Protocol: Tissue robustness evaluated by determining the ET50 value following topical exposure to 1% TritonX-100.
as §1, §2

[5] = test system: Liver-Chip; experiment: Assessment of tattoo pigment toxicity on the Liver-Chip; conditions: 5 microM
Protocol: Injury to liver function is indicated by […] in albumin Secretion. […] Other functional changes or mechanistic routes may be detectable through additional assays
Pigment with a low concentration of 0.03% of pigment diluent is flowed through the chip (same concentrations both top and bottom channels simultaneously). […] In future applications, we also plan to explore potential toxicity of pigment diluent formulations (without pigments).
Both top and bottom channels were treated
Embodiments of Liver-Chips include: Co-culture (Hepatocytes+LSECs); Tri-culture (Hepatocytes+LSECs+Kupffer cells); Quad-culture (Hepatocytes+LSECs+Kupffer cells+Stellate cells); Human Liver-Chip; Rat Liver-Chip; Dog Liver-Chip; etc.

[6] = test system: proximal tubular epithelium; experiment: Gentamicin-induced toxicity on Renal-Kidney Proximal Tubule-Chip; format: cell-based, human; conditions: 10 mM for 48 hours
Protocol: Gentamicin treatment is used for inducing damage as a positive control compared to controls without Gentamicin.
Readouts include but are not limited to: Gentamicin-induced toxicity after exposure to 10 mM of gentamicin for 48 hours.

[7] = test system: Skin-Chip (microfluidic OT-chip); conditions: human
Text: Readouts include but are not limited to Invitrogen PrestoBlue™. Invitrogen PrestoBlue™ Cell Viability Reagent, e.g. Fisher Scientific, Catalog number: A1326, is an exemplary metabolic Assay Reagent. When added to cells, the PrestoBlue® reagent is modified by the reducing environment of a viable cell and turns red in color, becoming highly fluorescent. This color change can be detected using fluorescence or absorbance measurements.

[8] = test system: Dog Liver-Chip; experiment: Effect of Bosentan on albumin secretion, Dog Liver-Chip; format: cell-based; conditions: in vivo relevant doses
Text: (§3) Readouts include but are not limited to: albumin secretion, Effect of Bosentan on Albumin Secretion; Inhibition of BSEP Transporter; Bile acid accumulation Cholyl-lysyl-fluorescein (CLF); BSEP substrate etc.

[9] = test system: Human Liver-Chip; experiment: Effect of Bosentan on albumin secretion, Human Liver-Chip; format: cell-based; conditions: in vivo relevant doses
Text: as §3

[10] = test system: Kidney Proximal Tubule-Chip; experiment: Assessment of tattoo pigment toxicity on the Kidney Proximal Tubule-Chip; format: cell-based, human
Protocol: Channel: Renal Proximal Tubule Epithelial Cells
Bottom Channel: Renal Microvascular Endothelial Cells
Morphology: BF Imaging From Effluent: LDH, ROS
Terminal Endpoints From Lysates: Caspase, ALP
ECM-coating. Sulfo-sanpah (Covachem, #13414), ER1 (0.5 mg/ml) in ER2 50 mM HEPES buffer; Collagen IV (BD Corning, 50 μg/mL in Dulbecco's phosphate-buffered saline (DPBS); and Matrigel (BD Corning, reduced growth factor, 100 ug/ml DPBS). Cells. Top channel. Human Proximal Tubular Epithelial Cells (Lonza, RPTEC #CC-2553); and Bottom channel. Primary Human Glomerular microvascular Endothelial cells (Cell Systems. ACBRI 128), expand to P7 (e.g. passage 7). Media. Renal Epithelial Growth Medium (REGM™ Lonza, CC-3190) for Proximal tubule cells or REGM2 (from PromoCell, Cat #C-26130); and Kidney endothelial cell medium (Cell Systems, 4ZO-500). Chip. High shear chip; under flow shear; and Tall channel closed top-chip. Experimental reagents. Collagen IV coated 6 well plate; and Corning BioCoat Collagen IV multiwall plates, Corning #354428.
One brief exemplary timeline is described as: Day −2: Chip coating; Day −1: Seeding endothelial cells; Day 0: Seeding proximal tubule epithelial cells; Day 0-7: Maintain chips; Day 7: Start Experiment (Study), e.g. 72 hours; and Day 10: End 72 hour Experiment (Study). Exemplary readouts include but are not limited to: Phase contrast microscopic images; immunofluorescent images; barrier function (in particular for kidney-chips, etc.); and Troponin I release (in particular for heart-chips, i.e. cardiac-chips).
Outflow from chips, (e.g. S1—closed top chip; and high shear (HS) chip) was collected for certain readouts. For reference, kidney endothelial media contains 5% FBS while the kidney epithelial media contains 0.5% FBS.

[11] = test system: Static Skin models (Hybrid Transwells); experiment: Phototoxicity and photosensitization to Red122: cytokines release; format: cell-based, human; conditions: tattooed with 35% w/v; for inflammatory and sensitization cytokines (IL-1Beta and IL-18) following UVA exposure: UVA on D11 ALI (D7 post-tattoo)
[12] = test system: Static Skin-Chip Model; experiment: Toxicity of pigments tattooed on Static Skin-Chip Model, metabolic activity (Presto Blue); format: cell-based, human
Text: Tattooed on D4 at ALI, N=4 per condition Hybrid Transwells.
Metabolic Activity (Presto Blue) of Blue15 Pigment. Tattooed on D4 at ALI. N=4 per condition Hybrid Transwells.
Thus, readouts include assessing recovery after damage. Readouts include but are not limited to Invitrogen PrestoBlue™.

[13] = test system: Static Skin models; format: cell-based, human
Text: Red tattoo pigments known to cause some level of toxicity following sun exposure.
D12 ALI (D8 post-tattoo) N=4 per condition. Hybrid Transwells.
Red tattoo pigments known to cause some level of toxicity following sun exposure. […] D12 ALI (D8 post-tattoo) N=4 per condition. Hybrid Transwells.
Safety Assessment of Red122 Pigment—Phototoxicity Assay (Viability) Red tattoo pigments known to cause some level of toxicity following sun exposure. […] Chlorpromazine (CPZ), known to be induce phototoxicity and photosensitization, was used as a positive control.
Barrier Function: Permeability of Cascade Blue (3000 MW); Quantification of skin permeability to Cascade Blue by topical deposition of 50 μl of 10 μM Cascade Blue, followed by 1 hour static incubation. Bottom channel medium collected and Papp determined by quantification of Cascade Blue present in the sampled medium using a plate-reader. […] Permeability of Testosterone and Caffeine; Requires mass spectrometer for detection. These values can be correlated to in vivo skin. Topical Compound Test for Toxicity, Corrosivity, Irritancy, Phototoxicity viability assays performed are MTT or Presto Blue. Corrosivity: a material is considered corrosive if cell viability is <50% after 3 min exposure or <15% after 60 min exposure. […]

[14] = test system: epidermal cells in a Skin-Chip (microfluidic OT-chip)
Text: In some embodiments, a live-dead staining is used for determining cell viability.

Triton X-100
expression of inflammatory cytokine IL-1B [1]: increase in expression
IL-18 (expressed following skin sensitization) ([1]; D11 ALI): no significant increase
expression of inflammatory cytokine IL-1alpha ([1]; D11 ALI): increase in expression
baseline ET50 value, average ([2]; EpiDerm200, 1.0% Triton X-100 topically, provided from MatTek): 6.82 h
EPI-200 Triton ET-50 ([2]; Year 1995): 6.65 h
EPI-200 Triton ET-50 ([2]; Year 1996): 6.74 h
EPI-200 Triton ET-50 ([2]; Year 1997): 6.78 h
EPI-200 Triton ET-50 ([2]; Year 1998): 7.24 h
EPI-200 Triton ET-50 ([2]; Year 1999): 6.75 h
EPI-200 Triton ET-50 ([2]; Year 2000 (through September 2000)): 6.76 h
ET50 [3]: 7 h
ET50 [4]: 11 h

CN[C@@H]1C[C@H]2O[C@@](C)([C@@H]1OC)n1c3ccccc3c3c4c(c5c6ccccc6n2c5c31)C(=O)NC4 [staurosporine]
ATP synthesis, effluent from the bottom channels [5]: loss of ATP synthesis
albumin secreted over time, effluent from the top channel [5]: loss of secreted albumin
hepatocyte cell morphology ([5]; after 4 days of treatment): hepatocyte damage

gentamicin
LDH in medium effluent [6]: significant increase
NAG in medium effluent [6]: significant increase
ROS in medium effluent [6]: significant increase
active caspase-3 in cells lysates [6]: increase
microscopic analysis of the proximal tubular epithelium [6]: structural damage

O=C(O)CO [glycolic acid]
metabolic activity (PrestoBlue) as percentage of untreated control [7]: statistically significant reduction in activity compared to the activity of citric acid (0.6M) and lactic acid

COc1ccccc1Oc1c(NS(=O)(=O)c2ccc(C(C)(C)C)cc2)nc(-c2ncccn2)nc1OCCO [Bosentan]
albumin secretion, dose response [8]: dose response effects
albumin secretion, dose response [9]: dose response effects

Cc1ccc2[nH]c3cc4c(=O)c5cc(C)ccc5[nH]c4cc3c(=O)c2c1 [Red122]
caspase activity ([10]; between the different doses): No significant differences were noted in caspase activity
kidney toxicity via LDH release ([10]; between the different doses): No significant changes in LDH
ROS activity ([10]; between the different groups): No significant differences were observed in the ROS activity
ALP activity (kidney function) ([10]; different doses): No significant differences were observed in the ALP activity
inflammatory and sensitization cytokines (IL-1Beta and IL-18) following UVA exposure [11]: both cytotoxicity and sensitization following UVA exposure
inflammatory and sensitization cytokines (IL-1Beta and IL-18) following UVA exposure ([11]; listed as Red): increase in both cytokines
effect as a skin sensitizer (cytokine release) ([11]; no UVA): no effect as a skin sensitizer
secretion of inflammatory cytokine ([11]; no UVA): increased secretion of inflammatory cytokine
viability (metabolic activity, Presto Blue) ([12]; 24 h post-tattoo, tattooed on D4 at ALI, Hybrid Transwells): decrease in viability with increasing Red122 concentration
skin recovery (viability) ([12]; over 8 days post-tattoo): Skin recovery observed
viability from healthy after UVA (phototoxicity) [13]: 85%

CC(O)C(=O)O (centres unmarked) [lactic acid]
cell death by DRAQ7 staining, dead cells/mm^2 [14]: statistically significant death of skin cells
